± gives the expanded uncertainty stated by the source.
Test: molar heat capacity at constant pressure
Settings: Liquid, Flow calorimetry

C1C[C@@H]2[C@H]3CC[C@H](C3)[C@@H]2C1 [exo-tetrahydrodicyclopentadiene]
Settings	molar heat capacity at constant pressure [J/K/mol]
323.34 K, 100 kPa	219.49 ± 2.2
323.34 K, 4000 kPa	218.3 ± 2.2
323.34 K, 5020 kPa	218.14 ± 2.2
323.35 K, 3070 kPa	218.8 ± 2.2
323.35 K, 6080 kPa	217.34 ± 2.2
323.37 K, 1030 kPa	219.39 ± 2.2
323.37 K, 2050 kPa	218.99 ± 2.2
333.16 K, 3990 kPa	223.29 ± 2.3
333.17 K, 5040 kPa	223.42 ± 2.3
333.17 K, 5990 kPa	223.32 ± 2.3
333.2 K, 100 kPa	224.4 ± 2.3
333.2 K, 1070 kPa	224.39 ± 2.3
333.2 K, 3000 kPa	223.84 ± 2.3
333.21 K, 2020 kPa	224.41 ± 2.3
343.01 K, 100 kPa	230.29 ± 2.3
343.03 K, 1090 kPa	230.02 ± 2.3
343.06 K, 2070 kPa	229.6 ± 2.3
343.06 K, 3060 kPa	229 ± 2.3
343.09 K, 4000 kPa	229.5 ± 2.3
343.09 K, 5030 kPa	228.72 ± 2.3
343.09 K, 6000 kPa	229.08 ± 2.3
353.59 K, 100 kPa	234.98 ± 2.4
353.59 K, 4080 kPa	234.11 ± 2.4
353.59 K, 5070 kPa	234.17 ± 2.4
353.6 K, 6090 kPa	233.83 ± 2.4
353.61 K, 1080 kPa	234.61 ± 2.4
353.61 K, 2010 kPa	234.35 ± 2.4
353.62 K, 3070 kPa	234.12 ± 2.4
363.48 K, 100 kPa	240.37 ± 2.4
363.53 K, 1070 kPa	240.28 ± 2.4
363.53 K, 2030 kPa	240.09 ± 2.4
363.53 K, 2990 kPa	239.97 ± 2.4
363.54 K, 4080 kPa	239.88 ± 2.4
363.54 K, 5000 kPa	239.76 ± 2.4
363.55 K, 6020 kPa	239.67 ± 2.4
383.58 K, 3060 kPa	248.68 ± 2.5
383.58 K, 4010 kPa	248.49 ± 2.5
383.59 K, 5070 kPa	248.39 ± 2.5
383.6 K, 100 kPa	249.31 ± 2.5
383.6 K, 1000 kPa	248.82 ± 2.5
383.6 K, 5990 kPa	248.35 ± 2.5
383.61 K, 2020 kPa	248.8 ± 2.5
403.36 K, 100 kPa	260.34 ± 2.6
403.36 K, 1020 kPa	259.74 ± 2.6
403.37 K, 2060 kPa	259.23 ± 2.6
403.38 K, 3040 kPa	258.89 ± 2.6
403.38 K, 4010 kPa	257.41 ± 2.6
403.39 K, 5000 kPa	256.93 ± 2.6
403.4 K, 6070 kPa	256.62 ± 2.6
423.2 K, 1020 kPa	271.44 ± 2.7
423.2 K, 2050 kPa	270.28 ± 2.7
423.2 K, 3010 kPa	268.73 ± 2.7
423.21 K, 100 kPa	271.95 ± 2.8
423.25 K, 4020 kPa	267.73 ± 2.7
423.26 K, 4980 kPa	267.54 ± 2.7
423.27 K, 6000 kPa	266.96 ± 2.7
443.11 K, 3110 kPa	282.78 ± 2.9
443.13 K, 2050 kPa	283.43 ± 2.9
443.14 K, 1030 kPa	284.05 ± 2.9
443.15 K, 240 kPa	284.8 ± 2.9
443.17 K, 4060 kPa	282.05 ± 2.9
443.18 K, 6050 kPa	280.75 ± 2.8
443.19 K, 5030 kPa	281.38 ± 2.8
463.16 K, 2040 kPa	298.88 ± 3
463.17 K, 230 kPa	301.77 ± 3
463.18 K, 1060 kPa	300.31 ± 3
463.19 K, 4070 kPa	297.53 ± 3
463.2 K, 3000 kPa	299.41 ± 3
463.21 K, 5010 kPa	297.44 ± 3
463.22 K, 6020 kPa	296.56 ± 3
483.31 K, 2050 kPa	316.76 ± 3.2
483.32 K, 3040 kPa	315.54 ± 3.2
483.37 K, 4030 kPa	315.19 ± 3.2
483.37 K, 6060 kPa	314.11 ± 3.2
483.38 K, 5080 kPa	314.31 ± 3.2
483.39 K, 1020 kPa	319.24 ± 3.2
483.42 K, 470 kPa	321.27 ± 3.2
503.28 K, 1020 kPa	336.59 ± 3.4
503.28 K, 2040 kPa	334.35 ± 3.4
503.28 K, 3050 kPa	333.03 ± 3.4
503.29 K, 4090 kPa	330.6 ± 3.3
503.29 K, 5070 kPa	331.61 ± 3.4
503.3 K, 480 kPa	338.7 ± 3.4
503.3 K, 6000 kPa	331.5 ± 3.4
523.44 K, 3010 kPa	348.07 ± 3.5
523.45 K, 1030 kPa	352.98 ± 3.6
523.45 K, 2060 kPa	350.7 ± 3.5
523.47 K, 500 kPa	355.43 ± 3.6
523.49 K, 5040 kPa	345.42 ± 3.5
523.49 K, 6180 kPa	344.08 ± 3.5
523.5 K, 4000 kPa	346.42 ± 3.5

Reference: the NIST ThermoML archive (doi:10.1016/j.fluid.2016.11.031)
